Results from US9018175B2 (Takeda GmbH, priority 2009, dated 2015).

Assays:
PDE4B1 = molecular target: T1, PDE4B1 (Homo sapiens, UniProt Q07343); assay: Inhibition of PDE4B1 activity (SPA, [3H]cAMP); assay type: biochemical; details: recombinant PDE4B1 expressed in SF21 cells; 0.5 pM [sic] cAMP; values given as bins; read-out: PDE4B1 inhibitory values measured as −logIC50 (converted)
T1 construct: made in house; host or cells: SF21 insect cells (baculovirus; pCR-Bac vector)
Procedure: The PDE4B1 (GB no. L20966) was a gift of Prof. M. Conti (Stanford University, USA). It was amplified from the original plasmid (pCMV5) via PCR with primers Rb18 (5′-[…]-3′) and Rb10 (5′-[…]-3′) and cloned into the pCR-Bac vector (Invitrogen, Groningen, NL).
The recombinant baculovirus was prepared by means of homologous recombination in SF9 insect cells. The expression plasmids were cotransfected with Baculo-Gold DNA (Pharmingen, Hamburg) using a standard protocol (Pharmingen, Hamburg). Wt virus-free recombinant virus supernatants were selected using plaque assay methods. After that, high-titre virus supernatants were prepared by amplifying 3 times. PDE4B1 was expressed in SF21 cells by infecting 2×10^6 cells/ml with an MOI (multiplicity of infection) between 1 and 10 in the serum-free medium Insect Express Sf9-S2 (PAA, Pasching, Austria). The cells were cultured at 28° C. for 48-72 hours, after which they were pelleted for 5-10 min at 1000×g and 4° C.
The SF21 insect cells were resuspended, at a concentration of approx. 10^7 cells/ml, in ice-cold (4° C.) homogenization buffer (20 mM Tris, pH 8.2, containing the following additions: 140 mM NaCl, 3.8 mM KCl, 1 mM EGTA, 1 mM MgCl2, 10 mM e-mercaptoethanol, 2 mM benzamidine, 0.4 mM Pefablock, 10 pM leupeptin, 10 pM pepstatin A, 5 pM trypsin inhibitor) and disrupted by ultrasonication. The homogenate was then centrifuged for 10 min at 1000, g and the supernatant was stored at −80° C. until subsequent use (see below). The protein content was determined by the Bradford method (BioRad, Munich) using BSA as the standard.
PDEB1 activities were measured in a 96-well platform using SPA (scintillation proximity assay) yttrium silicate beads (RPNQ1050 from GE Healthcare). In a first step the PDE activity operates hydrolysis of either [^3H] cAMP (substrate) into [^3H] 5′AMP. In a second step substrate and product are distinguished following addition of SPA yttrium silicate beads. Indeed, in the presence of zinc sulphate the linear [^3H] […] Close proximity of bound [^3H] […] The test volume is 100 pl and contains 20 mM Tris buffer (pH 7.4), 0.1 mg/ml of BSA, 5 mM Mg^2+, […] (including about 50,000 cpm of [3H]cAMP), 1 pl of the respective substance dilution in DMSO and sufficient recombinant PDE (1000, g supernatant, see above) to ensure that 10-20% of the cAMP is converted under the said experimental conditions. […] After a preincubation of 5 min at 37° C., the reaction is started by adding the substrate (cAMP) and the assays are incubated for a further 15 min; after that, they are stopped by adding SPA beads (50 pl). In accordance with the manufacturer's instructions, the SPA beads had previously been resuspended in water, but were then diluted 1:3 (v/v) in water; the diluted solution also contains 3 mM IBMX to ensure a complete PDE activity stop. After the beads have been sedimented (>30 min), the MTP's are analyzed in commercially available luminescence detection devices. The corresponding IC50 values of the compounds for the inhibition of PDE4B1 activity are determined from the concentration-effect curves by means of non-linear regression.

human PDE5 = molecular target: T2, human PDE5 (Homo sapiens, UniProt O76074); assay: Inhibition of PDE5 activity (SPA, [3H]cGMP, platelet lysate); assay type: biochemical; details: PDE5 from human platelet lysate; values given as bins; read-out: PDE5A inhibitory values measured as −logIC50 (converted)
T2 construct: from tissue; host or cells: human platelets from fresh donor blood (10,000 g supernatant of sonicated platelets)
Procedure: As a source for human PDE5, platelets are used. For that purpose, 150 ml fresh blood from human donors anticoagulated with citrate [final concentration 0.3% (w/v)] is centrifuged at 200 g for 10 min to obtain the so-called platelet-rich-plasma (PRP) as a supernatant. 1/10 volume of ACD solution (85 mM Na3-citrate, 111 mM D-glucose, 71 mM citric acid, pH 4.4) is added to 9/10 volume of PRP. After centrifugation (1,400 g, 10 min) the cell pellet is resuspended in 3 ml homogenization buffer (NaCl 140 mM, KCl 3.8 mM, EGTA (ethylene glycol tetraacetic acid) 1 mM, MgCl2 1 mM, Tris-HCl 20 mM, beta-mercaptoethanol 1 mM, pH 8.2) plus protease-inhibitor mix giving rise to the final concentrations of 0.5 mM Pefablock (Roche), 10 μM Leupeptin, 5 μM Trypsininhibitor, 2 mM Benzamidin and 10 μM Pepstatin A. The suspension is sonified and thereafter centrifuged for 15 min at 10,000 g. The resulting supernatant (platelet lysate) is used for enzymatic testings.
PDE5 activities were measured in a 96-well platform using SPA (scintillation proximity assay) yttrium silicate beads (RPNQ1050 from GE Healthcare). In a first step the PDE activity operates hydrolysis of either [^3H] cGMP (substrate) into [^3H] 5′GMP. In a second step substrate and product are distinguished following addition of SPA yttrium silicate beads. Indeed, in the presence of zinc sulphate the linear [^3H] […] Close proximity of bound [^3H] […] The test volume is 100 pl and contains 20 mM Tris buffer (pH 7.4), 0.1 mg of BSA (bovine serum albumin)/ml, 5 mM Mg^2+, 1 μM motapizone (PDE3 Inhibitor), 10 nM PDE2 inhibitor 2-(3,4-dimethoxybenzyl)-7-[(1R,2R)-2-hydroxy-1-(2-phenylethyl)propyl]-5-methylimidazo[5,1-f][1,2,4]triazin-4(3H)-one, […] (cyclic guanosine monophosphate) (including about 50,000 cpm of [3H]cGMP as a tracer), 1 pl of the respective compound dilution in dimethylsulfoxide (DMSO) and sufficient PDE5-containing platelet lysat (10,000, g supernatant, see above) to ensure that 10-20 wt % of the cGMP is converted under the said experimental conditions. […] After a preincubation of 5 min at 37° C., the reaction is started by adding the substrate (cGMP) and the assay is incubated for a further 15 min; after that, it is stopped by adding SPA beads (50 pl). In accordance with the manufacturer's instructions, the SPA beads had previously been resuspended in water, but are then diluted 1:3 (v/v) in water; the diluted solution also contains 3 mM […]3-isobutyl-1-methylxanthine (IBMX) to ensure a complete PDE activity stop. After the beads have been sedimented (>30 min), the MTP's are analyzed in commercially available luminescence detection devices. The corresponding IC50 values of the compounds for the inhibition of PDE activity are determined from the concentration-effect curves by means of non-linear regression.

T1 sequence (Q07343 whole entry): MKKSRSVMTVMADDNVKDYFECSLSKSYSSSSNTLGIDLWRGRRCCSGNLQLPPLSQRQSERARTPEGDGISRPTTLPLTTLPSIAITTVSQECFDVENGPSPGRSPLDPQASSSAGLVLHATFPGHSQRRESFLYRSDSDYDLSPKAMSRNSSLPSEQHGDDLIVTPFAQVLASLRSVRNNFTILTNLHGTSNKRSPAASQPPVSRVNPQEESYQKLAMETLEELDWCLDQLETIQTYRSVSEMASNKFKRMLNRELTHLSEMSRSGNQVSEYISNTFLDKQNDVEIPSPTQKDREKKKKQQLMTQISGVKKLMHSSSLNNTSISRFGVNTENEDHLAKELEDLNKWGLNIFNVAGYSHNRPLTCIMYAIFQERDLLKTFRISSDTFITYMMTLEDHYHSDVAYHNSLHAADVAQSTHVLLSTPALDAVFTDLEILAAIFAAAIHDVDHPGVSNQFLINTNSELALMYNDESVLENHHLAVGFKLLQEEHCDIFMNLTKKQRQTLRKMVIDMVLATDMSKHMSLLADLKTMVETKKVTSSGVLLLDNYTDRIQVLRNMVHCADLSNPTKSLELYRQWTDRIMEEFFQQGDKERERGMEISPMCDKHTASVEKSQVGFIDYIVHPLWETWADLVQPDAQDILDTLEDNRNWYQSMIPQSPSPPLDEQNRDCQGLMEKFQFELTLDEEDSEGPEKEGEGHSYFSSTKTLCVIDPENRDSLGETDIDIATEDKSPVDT

Structure (SMILES): CCOc1cc2c(cc1OC)C(c1ccc(C(=O)N3CCC(n4c(=O)c5sc(-c6ccc(F)cc6OC)cc5n(Cc5nnn(CC)n5)c4=O)CC3)cc1)=N[C@@H]1CCSC[C@H]21 [Example 32, 3-[1-({4-[(4aR,10bR)-9-ethoxy-8-methoxy-3,4,4a,10b-tetrahydro-1H-thiopyrano[4,3-c]isoquinolin-6-yl]phenyl}carbonyl)piperidin-4-yl]-1-[(2-ethyl-2H-tetrazol-5-yl)methyl]-6-(4-fluoro-2-methoxyphenyl)thieno[3,2-d]pyrimidine-2,4(1H,3H)-dione]
- IC50 (PDE4B1): 1 to 10 nM
- IC50 (human PDE5): < 10 nM

Structure (SMILES): CCOc1cc2c(cc1OC)C(c1ccc(C(=O)N3CCC(n4c(=O)c5sc(-c6ccccc6)cc5n(Cc5nnc(COC)o5)c4=O)CC3)cc1)=N[C@@H]1CCSC[C@H]21 [Example 8, 3-[1-({4-[(4aR,10bR)-9-ethoxy-8-methoxy-3,4,4a,10b-tetrahydro-1H-thiopyrano[4,3-c]isoquinolin-6-yl]phenyl}carbonyl)piperidin-4-yl]-1-{[5-(methoxymethyl)-1,3,4-oxadiazol-2-yl]methyl}-6-phenylthieno[3,2-d]pyrimidine-2,4(1H,3H)-dione]
- IC50 (PDE4B1): < 1 nM
- IC50 (human PDE5): 10 to 100 nM

Structure (SMILES): CCOc1cc2c(cc1OC)C(c1ccc(C(=O)N3CCC(n4c(=O)c5sc(-c6ccccc6)cc5n(Cn5nnc(CC)n5)c4=O)CC3)cc1)=N[C@@H]1CCSC[C@H]21 [Example 57, 3-[1-({4-[(4aR,10bR)-9-ethoxy-8-methoxy-3,4,4a,10b-tetrahydro-1H-thiopyrano[4,3-c]isoquinolin-6-yl]phenyl}carbonyl)piperidin-4-yl]-1-[(5-ethyl-2H-tetrazol-2-yl)methyl]-6-phenylthieno[3,2-d]pyrimidine-2,4(1H,3H)-dione]
- IC50 (PDE4B1): 1 to 10 nM
- IC50 (human PDE5): 10 to 100 nM

Structure (SMILES): CCOc1cc2c(cc1OC)C(c1ccc(C(=O)N3CCC(n4c(=O)c5sc(-c6ccccc6)cc5n(Cc5nnc(CC)o5)c4=O)CC3)cc1)=N[C@@H]1CCSC[C@H]21 [Example 4, 3-[1-({4-[(4aR,10bR)-9-ethoxy-8-methoxy-3,4,4a,10b-tetrahydro-1H-thiopyrano[4,3-c]isoquinolin-6-yl]phenyl}carbonyl)piperidin-4-yl]-1-[(5-ethyl-1,3,4-oxadiazol-2-yl)methyl]-6-phenylthieno[3,2-d]pyrimidine-2,4(1H,3H)-dione]
- IC50 (PDE4B1): < 1 nM
- IC50 (human PDE5): 10 to 100 nM

Structure (SMILES): CCCOCc1noc(Cn2c(=O)n(C3CCN(C(=O)c4ccc(C5=N[C@@H]6CCSC[C@@H]6c6cc(OCC)c(OC)cc65)cc4)CC3)c(=O)c3sc(-c4ccccc4)cc32)n1 [Example 51, 3-[1-({4-[(4aR,10bR)-9-ethoxy-8-methoxy-3,4,4a,10b-tetrahydro-1H-thiopyrano[4,3-c]isoquinolin-6-yl]phenyl}carbonyl)piperidin-4-yl]-6-phenyl-1-{[3-(propoxymethyl)-1,2,4-oxadiazol-5-yl]methyl}thieno[3,2-d]pyrimidine-2,4(1H,3H)-dione]
- IC50 (PDE4B1): < 1 nM
- IC50 (human PDE5): > 100 nM

Structure (SMILES): CCOc1cc2c(cc1OC)C(c1ccc(C(=O)N3CCC(n4c(=O)c5sc(-c6ccccc6)cc5n(Cc5ocnc5C)c4=O)CC3)cc1)=N[C@@H]1CCSC[C@H]21 [Example 54, 3-[1-({4-[(4aR,10bR)-9-ethoxy-8-methoxy-3,4,4a,10b-tetrahydro-1H-thiopyrano[4,3-c]isoquinolin-6-yl]phenyl}carbonyl)piperidin-4-yl]-1-[(4-methyl-1,3-oxazol-5-yl)methyl]-6-phenylthieno[3,2-d]pyrimidine-2,4(1H,3H)-dione]
- IC50 (PDE4B1): < 1 nM
- IC50 (human PDE5): > 100 nM

Structure (SMILES): CCOc1cc2c(cc1OC)C(c1cccc(C(=O)N3CCC(n4c(=O)c5sc(-c6ccc7c(c6)OCO7)cc5n(Cc5nnn(CC)n5)c4=O)CC3)c1)=N[C@@H]1CCSC[C@H]21 [Example 31, 6-(1,3-benzodioxol-5-yl)-3-[1-({3-[(4aR,10bR)-9-ethoxy-8-methoxy-3,4,4a,10b-tetrahydro-1H-thiopyrano[4,3-c]isoquinolin-6-yl]phenyl}carbonyl)piperidin-4-yl]-1-[(2-ethyl-2H-tetrazol-5-yl)methyl]thieno[3,2-d]pyrimidine-2,4(1H,3H)-dione]
- IC50 (PDE4B1): > 10 nM
- IC50 (human PDE5): < 10 nM

Structure (SMILES): CCOc1cc2c(cc1OC)C(c1cccc(C(=O)N3CCC(n4c(=O)c5sc(-c6ccc(F)cc6)cc5n(Cc5nnn(CC)n5)c4=O)CC3)c1)=N[C@@H]1CCSC[C@H]21 [Example 41, 3-[1-({3-[(4aR,10bR)-9-ethoxy-8-methoxy-3,4,4a,10b-tetrahydro-1H-thiopyrano[4,3-c]isoquinolin-6-yl]phenyl}carbonyl)piperidin-4-yl]-1-[(2-ethyl-2H-tetrazol-5-yl)methyl]-6-(4-fluorophenyl)thieno[3,2-d]pyrimidine-2,4(1H,3H)-dione]
- IC50 (PDE4B1): > 10 nM
- IC50 (human PDE5): < 10 nM

Structure (SMILES): CCOc1cc2c(cc1OC)C(c1ccc(C(=O)N3CCC(n4c(=O)c5sc(-c6ccccc6)cc5n(Cc5nnnn5COC)c4=O)CC3)cc1)=N[C@@H]1CCSC[C@H]21 [Example 29, 3-[1-({4-[(4aR,10bR)-9-ethoxy-8-methoxy-3,4,4a,10b-tetrahydro-1H-thiopyrano[4,3-c]isoquinolin-6-yl]phenyl}carbonyl)piperidin-4-yl]-1-{[1-(methoxymethyl)-1H-tetrazol-5-yl]methyl}-6-phenylthieno[3,2-d]pyrimidine-2,4(1H,3H)-dione]
- IC50 (PDE4B1): < 1 nM
- IC50 (human PDE5): < 10 nM
